Experimental data: the supplement of paper PMC4858399
Structures can show the parent of a compound that is named as a salt.

Assays:
Conditions in all cases: exposure time 48 h
[1] = system: Caenorhabditis elegans N2; experiment: lowest effective concentration for larval growth inhibition (size below effect threshold); higher = less potent
Outline: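 Each well of a 96-well plate received 50 C. elegans N2 L1 larvae, which grew for 48 h at 20°C in K-medium containing killed bacteria, 1% DMSO and the chemical at 0.5, 1, 5, 10, 50, 100 or 200 µM. A Biosort recorded the extinction of every worm as its size, and these readings were log-transformed and averaged per well. The lowest effective concentration is defined as the first dose at which the plate-adjusted mean size falls below the threshold and stays below it at all higher doses; that threshold is 5.665.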

[2] = system: Caenorhabditis elegans N2; experiment: AC50 for larval growth inhibition (Hill fit); higher = less potent
Outline: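 Worms were synchronised C. elegans N2 L1 larvae, 50 per well of a 96-well plate, kept 48 h at 20°C in K-medium with killed OP50, 1% DMSO and 0.5–200 µM chemical. Size was taken as COPAS Biosort extinction, log-transformed and averaged per well, using only wells with at least 10 worms. AC50 was estimated by a constrained Hill fit with weighted genetic-algorithm regression; values outside the range are censored.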

[3] = system: Caenorhabditis elegans N2; experiment: mean nematode size ln(EXT) after 48 h, plate-adjusted (DMSO control set to 6) (ln(EXT), control-adjusted); higher = larger nematodes / less growth inhibition
Outline: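 Each treatment used 4–6 wells of 50 synchronised C. elegans N2 L1 larvae, kept for 48 h at 20°C in K-medium with killed OP50, 1% DMSO and 0.5–200 µM chemical. Debris was excluded by a growth model after the Biosort measured per-worm extinction. Mean size per well came from natural-logged values and was plate-adjusted. That adjustment subtracted the vehicle control mean and then added 6.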

Row | SMILES | lowest effective concentration [1] | AC50 for larval growth inhibition [2] | mean nematode size ln(EXT) (ln) ([3]; 0.5 µM) | mean nematode size ln(EXT) (ln) ([3]; 1 µM) | mean nematode size ln(EXT) (ln) ([3]; 5 µM) | mean nematode size ln(EXT) (ln) ([3]; 10 µM) | mean nematode size ln(EXT) (ln) ([3]; 50 µM) | mean nematode size ln(EXT) (ln) ([3]; 100 µM) | mean nematode size ln(EXT) (ln) ([3]; 200 µM)
1 | Oc1ccc(C(c2ccc(O)cc2)C(Cl)(Cl)Cl)cc1 [2,2-Bis(4-hydroxyphenyl)-1,1,1-trichloroethane (HPTE)] | 50 µM | 66.9 µM | 6.16 | 6.15 | 6.1 | 6.01 | 5.25 | 4.61 | 4.12
2 | CN1CCN(c2ccccc2/C=C2\SCCN(c3ccc(Cl)c(Cl)c3)C2=O)CC1 [Elzasonan] | 10 µM | 62.7 µM | 5.89 | 5.8 | 5.84 | 5.58 | 4.76 | 4.27 | 3.67
3 | CC(=O)N1CCN(c2ccc(OCC3COC(Cn4ccnc4)(c4ccc(Cl)cc4Cl)O3)cc2)CC1 (configuration not stated) [Ketoconazole] | 10 µM | 85.2 µM | 6 | 5.74 | 5.8 | 5.62 | 5.3 | 4.28 | 3.53
4 | N#CC(Br)(Br)C(N)=O [2,2-Dibromo-3-nitrilopropionamide] | 200 µM | > 200 µM | 6.09 | 6.03 | 6.04 | 6.07 | 5.96 | 5.94 | 5.57
5 | c1ccc2c(c1)-c1cccc3cccc-2c13 [Fluoranthene] | 5 µM | 9.33 µM | 5.79 | 5.87 | 5.65 | 5.05 | 4.05 | 3.8 | 4.82
6 | CCC(C)N(C)C(=O)c1cc2ccccc2c(-c2ccccc2Cl)n1 (configuration not stated) | 100 µM | 95.2 µM | 5.92 | 5.93 | 5.99 | 5.97 | 6.11 | 5.55 | 5.43
7 | OC(c1ccc(Cl)cc1)(c1ccc(Cl)cc1)C(Cl)(Cl)Cl [Dicofol] | ≤ 0.5 µM | 10.8 µM | 5.64 | 5.63 | 5.3 | 4.39 | 3.83 | 3.61 | 3.35
8 | CCCCCCCCCCCCc1ccccc1S(=O)(=O)O [Dodecylbenzenesulfonic acid, Na salt] | 50 µM | 50.2 µM | 5.73 | 5.72 | 5.8 | 5.99 | 4.92 | 3.85 | 3.24
9 | CCCCCCCCCCC [Undecane] | 200 µM | > 200 µM | 5.95 | 5.92 | 5.86 | 5.83 | 5.86 | 5.9 | 5.57
10 | CNC(=O)ON=C(C)SC [Methomyl] | 50 µM | 91.6 µM | 5.94 | 5.95 | 6.08 | 5.93 | 5.19 | 4.65 | 3.39
11 | Nc1ccccc1N [1,2-Phenylenediamine] | 50 µM | > 200 µM | 5.84 | 5.95 | 5.92 | 5.74 | 5.66 | 5.46 | 5.19
12 | COP(=S)(OC)SCN1C(=O)c2ccccc2C1=O [Phosmet] | 10 µM | > 200 µM | 5.89 | 5.76 | 5.86 | 5.61 | 5.66 | 5.52 | 5.02
13 | Cc1ccccc1CO[C@@H]1C[C@@]2(C(C)C)CCC1(C)O2 [Cinmethylin] | 200 µM | > 200 µM | 5.94 | 5.99 | 6 | 6.07 | 5.92 | 5.77 | 4.9
14 | CC(C)(C)OOC(C)(C)C [Di-tert-butyl peroxide] | 200 µM | > 200 µM | 5.88 | 5.88 | 5.96 | 5.83 | 5.59 | 5.79 | 5.31
15 | CC(C)Oc1cc(-n2nc(C(C)(C)C)oc2=O)c(Cl)cc1Cl [Oxadiazon] | 200 µM | 120 µM | 6.14 | 6.23 | 6.09 | 5.95 | 6.05 | 5.95 | 3.29
16 | C=C(C)C(=O)[O][Sn]([CH2]CCC)([CH2]CCC)[CH2]CCC [Stannane, tributyl(2-methyl-1-oxo-2-propenyl)oxy-] | ≤ 0.5 µM | 0.511 µM | 4.73 | 4.66 | 3.93 | 3.57 | 3.8 | 3.85 | 3.56
17 | O=C(O)C(F)(F)C(F)(F)C(F)(F)C(F)(F)C(F)(F)C(F)(F)C(F)(F)F [Perfluorooctanoic acid] | 100 µM | 60.2 µM | 6 | 6 | 5.94 | 6.02 | 5.75 | 5.24 | 5.31
18 | CCN(CC)C(=S)SSC(=S)N(CC)CC [Disulfiram] | 100 µM | > 200 µM | 5.96 | 6 | 6.03 | 5.99 | 5.86 | 5.59 | 4.56
